Calls of active or inactive are those of the source. The rule behind the calls is not given here. Some results are limits rather than exact numbers.

In this experiment the target is Ubiquitin-conjugating enzyme E2 N (Homo sapiens) (UniProt P61088). The experiment can be described thus: NMR detection of UBE2N ligand binding – biophysical, purified protein (AID 1552). Conditions: NMR binding to purified UBE2N.
Chain of Ubiquitin-conjugating enzyme E2 N (Homo sapiens) (P61088 whole entry, looked up): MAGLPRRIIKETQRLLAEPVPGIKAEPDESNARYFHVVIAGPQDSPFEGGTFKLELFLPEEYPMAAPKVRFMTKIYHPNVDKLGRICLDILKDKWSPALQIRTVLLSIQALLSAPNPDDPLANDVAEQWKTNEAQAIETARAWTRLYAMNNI
On to `O=c1[nH]c(O)c(C=NCc2cccs2)c(=O)[nH]1`, for which the Kd was > 4 mM (inactive). As for `NC(=O)CNC(=O)c1ccccc1`, the Kd is > 4 mM (inactive). For the compound `NCc1cn2ccccc2n1`, the Kd was > 4 mM (inactive). For the compound `CC(=O)Oc1ccc(O)cc1`, the Kd is > 4 mM (inactive). Consider `O=C(Nc1nnc(-c2cccnc2)o1)c1ccccc1F`, for which the Kd was > 4 mM (inactive).

With `CC(=O)NC(=S)Nc1ccc(S(N)(=O)=O)cc1`, the Kd was > 4 mM (inactive). In the case of `Cc1nnc(NCCCO)[nH]c1=O`, the Kd was > 4 mM (inactive). Turning to `COC(=O)c1scc(S(C)(=O)=O)c1-n1cccc1`, the Kd was > 4 mM (inactive). With `O=C(O)C1CN(Cc2ccccc2)CCO1` (configuration not stated) the figure was > 4 mM (inactive).

Turning to `c1ccc2c(c1)nnn2C1CCNCC1`, the Kd was > 4 mM (inactive). `Cc1cc(C(=O)NC(C)c2ccncc2)no1` (configuration not stated): the Kd is > 4 mM (inactive). With `CNC(=O)c1cc(S(=O)(=O)N(C)C)ccc1Cl` the figure was > 4 mM (inactive); with `COCc1cc(=O)oc2cc(N)ccc12`, > 4 mM (inactive). With `CSc1ncc(CO)n1Cc1ccccc1` the figure was > 4 mM (inactive); with `COc1ccc(N/C(N)=N\c2nc(C)cc(C)n2)cc1`, > 4 mM (inactive); with `CC(C)(C#N)O[C@@H]1O[C@H](CO)[C@@H](O)[C@H](O)[C@H]1O`, > 4 mM (inactive). For the compound `Nc1nnc(SCc2ccc3c(c2)OCO3)s1`, the Kd is > 4 mM (inactive). On to `C=CC(C1=CC(=O)C(OC)=CC1=O)c1ccc(O)cc1` (configuration not stated), for which the Kd is > 4 mM (inactive).

For the compound `Cc1onc(-c2ccccc2)c1CO`, the Kd is > 4 mM (inactive).

For `c1ccc(-c2noc(-c3cccnc3)n2)nc1`, the Kd was > 4 mM (inactive). For the compound `COc1ccc2cc3[n+](cc2c1OC)CCc1cc2c(cc1-3)OCO2`, the Kd is > 4 mM (inactive).

As to `O=c1[nH]c(=O)n(-c2ccc(F)cc2)c(O)c1/C=C1/C=CC=N1`, the Kd is > 4 mM (inactive).

`NC(=O)c1ccc(NC(=O)c2cccnc2)cc1`: the Kd is > 4 mM (inactive). On to `NC(=O)CSc1ccccn1`, for which the Kd is > 4 mM (inactive). Take `c1ccc2[nH]c(CCn3cncn3)nc2c1`: the Kd is > 4 mM (inactive). Turning to `CCOC(=O)Cc1cc(=O)n2[nH]c(C)cc2n1`, the Kd is > 4 mM (inactive). For `O=C(O)CC1C(=O)NCCN1Cc1cccs1` (configuration not stated), the Kd was > 4 mM (inactive). With `COc1ccc(CN2CCOCC2)c(C)c1C` the figure was > 4 mM (inactive); with `Cc1cccc(-c2nnc(-c3ccc(N)cc3)o2)c1`, > 4 mM (inactive); with `O=C(Nc1cccnc1)c1ccc(Br)s1`, > 4 mM (inactive). Regarding `O=C(O)C1Cc2ccccc2O1` (configuration not stated), the Kd is > 4 mM (inactive). With `S=C(CN1CCCC1=S)N1CCOCC1`, the Kd was > 4 mM (inactive). With `COc1ccc(-c2oc3ccccc3c(=O)c2O)cc1OC` the figure was > 4 mM (inactive).

As for `O=C1C=C(Nc2ccc(O)cc2)c2ccccc2C1=O`, the Kd was > 4 mM (inactive). With `CNC(=O)C(=O)Nc1ccc(F)cc1` the figure was > 4 mM (inactive); with `NC1=NC(=O)/C(=C\c2cccnc2)S1`, > 4 mM (inactive). With `O=C(CC1CCCCC1)N1CCN(c2ccccn2)CC1`, the Kd was > 4 mM (inactive). Consider `Nc1cccc(S(=O)(=O)N2CCOCC2)c1`, for which the Kd is > 4 mM (inactive). Turning to `NCC(O)c1ccc(O)cc1` (configuration not stated), the Kd is > 4 mM (inactive).

For `C=CCCCCCCCCCCCC(O)CC(O)COC(C)=O` (configuration not stated), the Kd was > 4 mM (inactive). Take `C[C@H]1[C@H]2CCC3C4CC=C5C[C@@H](N(C)C)CC[C@]5(C)C4CC[C@@]32CN1C` (some centres not stated): the Kd was > 4 mM (inactive).

As to `COC(=O)c1c(OC)cc2c(c1C)Oc1c(Cl)c(O)c(Cl)c(C)c1C(=O)O2`, the Kd is > 4 mM (inactive).
